Source: patent publication US10597388B2, “Pyridazinone herbicides” (FMC CORPORATION, priority 2014, dated 2020)

Experiments:
Assay type in all cases: in vivo
[1] = system: oilseed rape (Brassica napus); test: Test D controlled growth environment herbicide test, pre- and postemergence
Outline: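 Pre-emergence: seeds sown in silt loam soil were sprayed with compound in a non-phytotoxic solvent mix containing surfactant. Post-emergence: plants at 2 to 18 cm (1- to 4-leaf stage) in peat moss/vermiculite medium got the same formulation. Visual 0–100 rating versus controls after 14 to 21 d.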

[2] = system: Italian ryegrass (Lolium multiflorum); test: Test E greenhouse herbicide test, pre- and postemergence
Source text: (§1) Seeds of plant species selected from corn (Zea mays), soybean (Glycine max), velvetleaf (Abutilon theophrasti), lambsquarters (Chenopodium album), wild poinsettia (Euphorbia heterophylla), pigweed, palmer (palmer pigweed, Amaranthus palmeri), waterhemp (common waterhemp, Amaranthus rudis), surinam grass (Brachiaria decumbens), crabgrass, large (large crabgrass, Digitaria sanguinalis), crabgrass, Brazilian (Brazilian crabgrass, Digitaria horizontalis), panicum, fall (fall panicum, Panicum dichotomiflorum), foxtail, giant (giant foxtail, Setaria faberii), foxtail, green (green foxtail, Setaria viridis), goosegrass (Eleusine indica), johnsongrass (Sorghum halepense), ragweed (common ragweed, Ambrosia elatior), barnyardgrass (Echinochloa crus-galli), sandbur (southem sandbur, Cenchrus echinatus), arrowleaf sida (Sida rhombifolia), Italian ryegrass (Lolium multiflorum), dayflower (Virginia (VA) dayflower, Commelina virginica), field bindweed (Convolvulus arvensis), momingglory (Ipomoea coccinea), nightshade (eastern black nightshade, Solanum ptycanthum), kochia (Kochia scoparia), nutsedge, yellow (yellow nutsedge, Cyperus esculentus), horseweed (Conyza canadensis), and beggarticks (hairy beggarticks, Bidens pilosa), were planted into a silt loam soil and treated preemergence with test chemicals formulated in a non-phytotoxic solvent mixture which included a surfactant.
(§2) At the same time, plants from these crop and weed species and also waterhemp_RES1, (ALS & Triazine resistant common waterhemp, Amaranthus rudis), and waterhemp_RES2, (ALS & HPPD resistant common waterhemp, Amaranthus rudis) were planted in pots containing Redi-Earth® planting medium (Scotts Company, 14111 Scottslawn Road, Marysville, Ohio 43041) comprising spaghnum peat moss, vermiculite, wetting agent and starter nutrients were treated with postemergence applications of test chemicals formulated in the same manner. Plants ranged in height from 2 to 18 cm for postemergence treatments (1- to 4-leaf stage). Treated plants and controls were maintained in a greenhouse for 14 to 21 d, after which time all species were compared to controls and visually evaluated. Plant response ratings, summarized in Table E, are based on a scale of 0 to 100 where 0 is no effect and 100 is complete control. A dash (-) response means no test result.

[3] = system: beggarticks (hairy beggarticks, Bidens pilosa); test: as above
Source text: as §1, §2

[4] = system: crabgrass, Brazilian (Brazilian crabgrass, Digitaria horizontalis); test: as above
Source text: as §1, §2

[5] = system: field bindweed (Convolvulus arvensis); test: as above
Source text: as §1, §2

[6] = system: foxtail, green (green foxtail, Setaria viridis); test: as above; settings: Preemergence
Source text: as §1, §2

[7] = system: johnsongrass (Sorghum halepense); test: as above; settings: Preemergence
Source text: as §1, §2

[8] = system: kochia (Kochia scoparia); test: as above
Source text: as §1, §2

[9] = system: nutsedge, yellow (yellow nutsedge, Cyperus esculentus); test: as above; settings: Preemergence
Source text: as §1, §2

[10] = system: waterhemp (common waterhemp, Amaranthus rudis); test: as above
Source text: as §1, §2

[11] = 62 g ai/ha, Postemergence, scale 0 to 100 (0 no effect, 100 complete control)
[12] = 62 g ai/ha, Preemergence, scale 0 to 100 (0 no effect, 100 complete control)
[13] = 125 g ai/ha, Postemergence, scale 0 to 100 (0 no effect, 100 complete control)
[14] = 125 g ai/ha, Preemergence, scale 0 to 100 (0 no effect, 100 complete control)
[15] = 250 g ai/ha, Postemergence, scale 0 to 100 (0 no effect, 100 complete control)
[16] = Postemergence, 31 g ai/ha, visual, scale 0 no effect to 100 complete control
[17] = Preemergence, 31 g ai/ha, scale 0 to 100, 0 no effect, 100 complete control
[18] = Preemergence, 250 g ai/ha, visual, scale 0 no effect to 100 complete control
[19] = Preemergence, 125 g ai/ha, visual, scale 0 no effect to 100 complete control
[20] = 62 g ai/ha, scale 0 to 100 (0 no effect, 100 complete control)
[21] = 31 g ai/ha, scale 0 to 100, 0 no effect, 100 complete control
[22] = 125 g ai/ha, visual, scale 0 no effect to 100 complete control
[23] = 250 g ai/ha, visual, scale 0 no effect to 100 complete control

SMILES: CC(=O)Oc1c(C)nn(C)c(=O)c1-c1c(C)sc2ccc(C)cc12 [Compound 25]
- Oilseed Rape plant response rating ([1]; Postemergence, 31 g ai/ha, scale 0 to 100 (0 no effect, 100 complete control)): 5
- Plant response rating, Oilseed Rape ([1]; Postemergence, 125 g ai/ha, visual rating on scale 0 (no effect) to 100 (complete control), 14 to 21 d): 45
- Plant response rating, Oilseed Rape ([1]; Postemergence, 250 g ai/ha, scale 0 to 100 (0 no effect, 100 complete control)): 60
- Plant response rating (scale of 0 to 100), Oilseed Rape ([1]; Preemergence, 31 g ai/ha): 0
- Plant response rating, Oilseed Rape ([1]; Preemergence, 62 g ai/ha, scale 0 to 100 (0 no effect, 100 complete control)): 0
- Plant response rating, Oilseed Rape ([1]; Preemergence, 125 g ai/ha, scale 0 to 100 (0 no effect, 100 complete control)): 0
- Plant response rating, Oilseed Rape ([1]; Preemergence, 250 g ai/ha, scale 0 to 100 (0 no effect, 100 complete control)): 35
- Plant response rating, Oilseed Rape ([1]; postemergence, 62 g ai/ha, scale 0 to 100, 0 no effect, 100 complete control): 30
- Plant response rating, Ryegrass, Italian [2, 11]: 80
- Plant response rating, Ryegrass, Italian [2, 12]: 95
- Plant response rating, Ryegrass, Italian [2, 13]: 85
- Plant response rating, Ryegrass, Italian [2, 14]: 98
- Plant response rating, Ryegrass, Italian [2, 15]: 90
- Plant response rating, Ryegrass, Italian [2, 16]: 75
- Plant response rating, Ryegrass, Italian [2, 17]: 95
- Plant response rating, Ryegrass, Italian [2, 18]: 100
- Plant response rating, Beggarticks [3, 11]: 100
- Plant response rating, Beggarticks [3, 12]: 100
- Plant response rating, Beggarticks [3, 13]: 100
- Plant response rating, Beggarticks [3, 15]: 100
- Plant response rating, Beggarticks [3, 16]: 100
- Plant response rating, Beggarticks [3, 17]: 100
- Plant response rating, Beggarticks [3, 19]: 100
- Plant response rating, Beggarticks [3, 18]: 100
- Plant response rating, Crabgrass, Brazil [4, 11]: 40
- Plant response rating, Crabgrass, Brazil [4, 12]: 90
- Plant response rating, Crabgrass, Brazil [4, 13]: 50
- Plant response rating, Crabgrass, Brazil [4, 15]: 50
- Plant response rating, Crabgrass, Brazil [4, 16]: 30
- Plant response rating, Crabgrass, Brazil [4, 17]: 75
- Plant response rating, Crabgrass, Brazil [4, 19]: 95
- Plant response rating, Crabgrass, Brazil [4, 18]: 95
- Plant response rating, Field Bindweed [5, 11]: 95
- Plant response rating, Field Bindweed [5, 12]: 98
- Plant response rating, Field Bindweed [5, 13]: 95
- Plant response rating, Field Bindweed [5, 15]: 90
- Plant response rating, Field Bindweed [5, 16]: 90
- Plant response rating, Field Bindweed [5, 17]: 80
- Plant response rating, Field Bindweed [5, 19]: 60
- Plant response rating, Field Bindweed [5, 18]: 98
- Plant response rating, Foxtail, Green [6, 20]: 98
- Plant response rating, Foxtail, Green [6, 21]: 65
- Plant response rating, Foxtail, Green [6, 22]: 98
- Plant response rating, Foxtail, Green [6, 23]: 100
- Plant response rating, Johnsongrass [7, 20]: 60
- Plant response rating, Johnsongrass [7, 21]: 75
- Plant response rating, Johnsongrass [7, 22]: 80
- Plant response rating, Johnsongrass [7, 23]: 90
- Plant response rating, Kochia [8, 11]: 95
- Plant response rating, Kochia [8, 12]: 80
- Plant response rating, Kochia [8, 13]: 100
- Plant response rating, Kochia [8, 15]: 98
- Plant response rating, Kochia [8, 16]: 90
- Plant response rating, Kochia [8, 17]: 20
- Plant response rating, Kochia [8, 19]: 98
- Plant response rating, Kochia [8, 18]: 100
- Plant response rating, Nutsedge, Yellow [9, 20]: 20
- Plant response rating, Nutsedge, Yellow ([9]; 125 g ai/ha, scale 0 to 100 (0 no effect, 100 complete control)): 20
- Plant response rating, Nutsedge, Yellow [9, 21]: 0
- Plant response rating, Nutsedge, Yellow [9, 23]: 65
- Plant response rating, Waterhemp [10, 11]: 80
- Plant response rating, Waterhemp [10, 12]: 100
- Plant response rating, Waterhemp [10, 13]: 85
- Plant response rating, Waterhemp [10, 14]: 100
- Plant response rating, Waterhemp [10, 15]: 90
- Plant response rating, Waterhemp [10, 16]: 80
- Plant response rating, Waterhemp [10, 17]: 100
- Plant response rating, Waterhemp [10, 18]: 100
